# Data as given in ChEMBL document CHEMBL1153666, “K-13 and of4949: Evaluation of key partial structures and pharmacophore delineation” (Bioorg Med Chem Lett, 1993).
# The source made the active and inactive calls. The calls are words filed in the database; no cut-off is given here.
# Key:
# [1] = biological target: T1, Angiotensin-converting enzyme (Oryctolagus cuniculus, UniProt P12822); experiment: Inhibitory concentration against Angiotensin I converting enzyme obtained from rabbit lung acetone powder extract; details: read-out: I50 (converted)
# T1 sequence (P12822 whole entry): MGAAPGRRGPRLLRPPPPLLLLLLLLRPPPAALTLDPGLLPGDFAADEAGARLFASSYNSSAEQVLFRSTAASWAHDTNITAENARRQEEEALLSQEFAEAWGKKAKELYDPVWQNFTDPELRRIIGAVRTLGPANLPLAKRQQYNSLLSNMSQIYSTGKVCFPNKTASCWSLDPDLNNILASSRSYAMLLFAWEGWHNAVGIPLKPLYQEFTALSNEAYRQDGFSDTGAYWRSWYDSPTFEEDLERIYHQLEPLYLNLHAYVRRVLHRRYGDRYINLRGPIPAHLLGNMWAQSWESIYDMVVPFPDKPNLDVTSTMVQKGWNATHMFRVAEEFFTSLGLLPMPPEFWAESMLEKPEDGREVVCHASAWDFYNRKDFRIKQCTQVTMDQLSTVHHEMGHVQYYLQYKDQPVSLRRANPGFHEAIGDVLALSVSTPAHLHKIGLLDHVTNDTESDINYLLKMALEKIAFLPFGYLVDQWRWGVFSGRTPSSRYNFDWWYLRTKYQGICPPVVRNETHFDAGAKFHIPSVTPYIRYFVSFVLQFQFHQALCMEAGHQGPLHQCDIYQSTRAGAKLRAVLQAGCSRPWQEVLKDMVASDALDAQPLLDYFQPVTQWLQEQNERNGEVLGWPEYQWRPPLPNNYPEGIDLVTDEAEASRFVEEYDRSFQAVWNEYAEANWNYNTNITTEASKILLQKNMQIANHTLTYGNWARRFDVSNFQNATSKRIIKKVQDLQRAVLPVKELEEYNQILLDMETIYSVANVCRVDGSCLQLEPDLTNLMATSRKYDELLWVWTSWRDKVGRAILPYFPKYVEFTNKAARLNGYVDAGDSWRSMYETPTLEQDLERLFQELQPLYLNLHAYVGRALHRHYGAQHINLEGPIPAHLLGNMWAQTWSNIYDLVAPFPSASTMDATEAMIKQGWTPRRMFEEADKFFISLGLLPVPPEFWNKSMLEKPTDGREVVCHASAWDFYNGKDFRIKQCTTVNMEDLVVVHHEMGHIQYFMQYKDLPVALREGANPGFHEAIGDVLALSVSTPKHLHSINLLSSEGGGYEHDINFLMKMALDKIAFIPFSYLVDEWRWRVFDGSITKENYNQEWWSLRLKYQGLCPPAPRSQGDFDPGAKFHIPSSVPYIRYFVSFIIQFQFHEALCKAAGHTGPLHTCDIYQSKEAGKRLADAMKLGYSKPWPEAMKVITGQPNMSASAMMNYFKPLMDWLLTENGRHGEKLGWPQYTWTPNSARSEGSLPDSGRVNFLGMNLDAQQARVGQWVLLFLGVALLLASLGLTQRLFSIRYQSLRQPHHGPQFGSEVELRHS
# [2] = biological target: T2, Angiotensin-converting enzyme (Oryctolagus cuniculus) (UniProt P12822); experiment: Inhibition of Angiotensin I converting enzyme from rabbit lung acetone powder extract; Inactive
# T2 sequence (whole entry): T1 sequence (P12822 whole entry)
# P388 [3] = experiment: Tested for concentration that causes 50% inhibition of P388 leukemic cell growth, was determined in vitro; type: functional, cell-based; details: Mus musculus
# [4] = biological target: T2, Angiotensin-converting enzyme (Oryctolagus cuniculus); experiment: Tested for inhibitory concentration that causes inhibition of Angiotensin I converting enzyme obtained from rabbit lung acetone powder extract; details: concentration not given here
# P388 [5] = experiment: Tested in vitro for concentration that causes 50% inhibition of P388 leukemic cell growth; type: functional, cell-based; details: Mus musculus
# [6] = biological target: T3, Aminopeptidase B (Rattus norvegicus) (UniProt O09175); experiment: Percent inhibition of rat liver aminopeptidase B by 230 ug/mL was determined
# T3 sequence (whole entry): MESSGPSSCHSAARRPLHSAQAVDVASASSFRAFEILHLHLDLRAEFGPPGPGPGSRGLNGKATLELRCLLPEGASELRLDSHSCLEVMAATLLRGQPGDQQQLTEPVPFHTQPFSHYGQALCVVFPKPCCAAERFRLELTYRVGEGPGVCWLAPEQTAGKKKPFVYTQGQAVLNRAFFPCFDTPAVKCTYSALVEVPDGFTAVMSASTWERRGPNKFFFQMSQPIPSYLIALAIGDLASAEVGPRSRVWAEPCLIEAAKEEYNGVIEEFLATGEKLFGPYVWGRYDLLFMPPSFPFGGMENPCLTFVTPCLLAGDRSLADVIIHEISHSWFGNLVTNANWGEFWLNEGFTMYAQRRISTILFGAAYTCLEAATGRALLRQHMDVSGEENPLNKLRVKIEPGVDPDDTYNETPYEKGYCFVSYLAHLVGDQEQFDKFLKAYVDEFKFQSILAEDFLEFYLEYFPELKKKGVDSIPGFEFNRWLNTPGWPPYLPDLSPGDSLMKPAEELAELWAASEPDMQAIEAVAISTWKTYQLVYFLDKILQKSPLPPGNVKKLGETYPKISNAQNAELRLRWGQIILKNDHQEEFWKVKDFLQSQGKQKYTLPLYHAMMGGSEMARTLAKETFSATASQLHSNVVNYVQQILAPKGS
# [7] = biological target: T1, Angiotensin-converting enzyme; experiment: Tested for inhibitory concentration that causes inhibition of Angiotensin I converting enzyme obtained from rabbit lung acetone powder extract); details: read-out: I50 (converted)
# [8] = biological target: T1, Angiotensin-converting enzyme; experiment: Tested for inhibitory constant against Angiotensin I converting enzyme
# [9] = biological target: T3, Aminopeptidase B (Rattus norvegicus); experiment: Tested for percent inhibitory concentration that cause inhibition of rat liver aminopeptidase B at 220 ug/mL
# Aminopeptidase B [10] = biological target: T4, Aminopeptidase B (Rattus norvegicus, UniProt O09175); experiment: Tested for concentration that causes 50% inhibition of rat liver aminopeptidase B, was determined; details: read-out: I50 (converted)
# T4 sequence (O09175 whole entry): T3 sequence (whole entry)
# [11] = biological target: T2, Angiotensin-converting enzyme (Oryctolagus cuniculus); experiment: Tested for percent inhibitory concentration that cause inhibition of Angiotensin I converting enzyme obtained from rabbit lung acetone powder extract at 100 ug/mL
# Aminopeptidase B [12] = biological target: T4, Aminopeptidase B; experiment: Tested for concentration that causes 50% inhibition of rat liver aminopeptidase B, was determined; Inactive
# [13] = biological target: T2, Angiotensin-converting enzyme (Oryctolagus cuniculus); experiment: Tested for percent inhibitory concentration that cause inhibition of Angiotensin I converting enzyme obtained from rabbit lung acetone powder extract at 200 ug/mL
SMILES,IC50 [1],inhibition [2],other results
NC(=O)C[C@@H]1NC(=O)CCc2ccc(O)c(c2)Oc2ccc(cc2)CCNC1=O,528 µM,,
O=C1CCc2ccc(cc2)Oc2cc(ccc2O)CCNC(=O)[C@H](Cc2ccc(O)cc2)N1,11.2 µM,,
COC(=O)[C@@H]1Cc2ccc(cc2)Oc2cc(ccc2O)C[C@H](N)C(=O)N[C@@H](CC(N)=O)C(=O)N1,42.5 µM,,
NC(=O)C[C@@H]1NC(=O)CCc2cccc(c2)Oc2ccc(cc2)CCNC1=O,,inactive,
COc1ccc2cc1Oc1ccc(cc1)C[C@@H](C(=O)O)NC(=O)[C@H](CC(N)=O)NC(=O)[C@@H](N)C2,149 µM,,IC50 (P388 [3]): > 10 µg/mL
O=C1CCc2ccc(cc2)Oc2cccc(c2)CCNC(=O)[C@H](Cc2ccc(O)cc2)N1,,,inhibition [4]: 10%
CC(=O)N[C@@H]1Cc2ccc(cc2)Oc2cc(ccc2O)C[C@H](C(=O)O)NC(=O)[C@H](Cc2ccc(O)cc2)NC1=O,,,IC50 (P388 [5]): > 10 µg/mL; inhibition [6]: 13%; IC50 [7]: 183 nM; Ki [8]: 350 nM
O=C1CCc2ccc(O)c(c2)Oc2ccc(cc2)CCNC(=O)CN1,,inactive,
COC(=O)[C@@H]1Cc2ccc(cc2)Oc2cc(ccc2OCc2ccccc2)C[C@H](NC(=O)OCc2ccccc2)C(=O)N[C@@H](CC(N)=O)C(=O)N1,,,inhibition [9]: 14%
O=C1CCc2cccc(c2)Oc2ccc(cc2)CCNC(=O)CN1,,inactive,
COC(=O)[C@@H]1Cc2ccc(cc2)Oc2cc(ccc2OC)C[C@H](NC(=O)OCc2ccccc2)C(=O)N[C@@H](CC(N)=O)C(=O)N1,210 µM,,
NC(=O)C[C@@H]1NC(=O)[C@@H](N)Cc2ccc(O)c(c2)Oc2ccc(cc2)C[C@@H](C(=O)O)NC1=O,,,IC50 (P388 [3]): > 10 µg/mL; IC50 (Aminopeptidase B [10]): 43.8 µM; inhibition [11]: 11%
N[C@@H](Cc1ccc(Oc2cc(C[C@H](N)C(=O)O)ccc2O)cc1)C(=O)O,,,IC50 (P388 [3]): > 10 µg/mL; I50 (Aminopeptidase B [12]): Not Active; inhibition [13]: 13%
COc1ccc2cc1Oc1ccc(cc1)CCNC(=O)[C@H](CC(N)=O)NC(=O)CC2,535 µM,,
COc1ccc2cc1Oc1ccc(cc1)C[C@@H](C(=O)O)NC(=O)[C@H](CC(N)=O)NC(=O)[C@@H](NC(=O)OCc1ccccc1)C2,182 µM,,

# The next lines start with results.
IC50 [1],inhibition [2],SMILES,other results
,inactive,COC(=O)CCc1cccc(Oc2ccc(CCNC(=O)CNC(=O)OC(C)(C)C)cc2)c1,
0.89 µM,,COC(=O)[C@H]1Cc2ccc(O)c(c2)Oc2ccc(cc2)C[C@H](NC(C)=O)C(=O)N[C@@H](Cc2ccc(O)cc2)C(=O)N1,
5.34 µM,,COc1ccc2cc1Oc1ccc(cc1)C[C@H](NC(C)=O)C(=O)N[C@@H](Cc1ccc(O)cc1)C(=O)N[C@H](C(=O)O)C2,
198 µM,,COC(=O)[C@@H]1Cc2ccc(cc2)Oc2cc(ccc2O)C[C@H](NC(=O)OCc2ccccc2)C(=O)N[C@@H](CC(N)=O)C(=O)N1,
,inactive,COC(=O)CCc1ccc(OC)c(Oc2ccc(CCNC(=O)[C@H](CC(N)=O)NC(=O)OC(C)(C)C)cc2)c1,
,inactive,COC(=O)CCc1cccc(Oc2ccc(CCNC(=O)[C@H](CC(N)=O)NC(=O)OC(C)(C)C)cc2)c1,
,inactive,COC(=O)[C@H](Cc1ccc(OCc2ccccc2)c(Oc2ccc(C[C@H](NC(=O)[C@H](CC(N)=O)NC(=O)OC(C)(C)C)C(=O)OC)cc2)c1)NC(=O)OCc1ccccc1,
,inactive,CC(C)(C)OC(=O)N[C@@H](Cc1ccc(Oc2cc(C[C@H](NC(=O)OCc3ccccc3)C(=O)O)ccc2OCc2ccccc2)cc1)C(=O)N[C@H](Cc1ccc(O)cc1)C(=O)O,
1.15 µM,,COC(=O)[C@H]1Cc2ccc(O)c(c2)Oc2ccc(cc2)C[C@H](N)C(=O)N[C@@H](Cc2ccc(O)cc2)C(=O)N1,
,inactive,COC(=O)CCc1ccc(O)c(Oc2ccc(CCNC(=O)[C@H](CC(N)=O)NC(=O)OC(C)(C)C)cc2)c1,
,inactive,CC(=O)N[C@@H](Cc1ccc(Oc2cc(C[C@H](NC(=O)[C@H](Cc3ccc(O)cc3)NC(=O)OC(C)(C)C)C(=O)O)ccc2OCc2ccccc2)cc1)C(=O)O,
,inactive,COC(=O)[C@H](Cc1ccc(O)c(Oc2ccc(C[C@H](NC(=O)[C@H](CC(N)=O)NC(=O)OC(C)(C)C)C(=O)OC)cc2)c1)NC(=O)OCc1ccccc1,
